Patent US5171864A, “Di-(5-hydroxy-2(5H)-2-oxo-4-furyl)methyl-alpha,omega alkane-dioates and N,N-bis-(5-hydroxy-2(5H)-2-oxo-4-furyl)methyl-alpha,omega-dialkanoic acid amides as anti-inflammatory agents” (Allergan, Inc., priority 1991, dated 1992)
Where two headings read alike, the source gives them in different places.

What was measured:
[1] = target: bee venom phospholipase A2 (Apis mellifera, UniProt P00630); test: biochemical; conditions: read-out: PLA2 IC50
[2] = target: phosphoinositide-specific phospholipase C; test: Inhibition of phosphoinositide-specific phospholipase C (PLC); assay type: biochemical; conditions: procedure of Bennett et al, Molecular Pharmacology 32:587-593 (1987)
Description: Inhibition of Phosphoinositide-specific Phospholipase C
The effect of compounds of this invention on phosphoinositide-specific phospholipase C may be determined by procedures described by Bennett et al, Molecular Pharmacology 32:587-593 (1987).

bee venom phospholipase A2, sequence (P00630 34-167 limits assumed): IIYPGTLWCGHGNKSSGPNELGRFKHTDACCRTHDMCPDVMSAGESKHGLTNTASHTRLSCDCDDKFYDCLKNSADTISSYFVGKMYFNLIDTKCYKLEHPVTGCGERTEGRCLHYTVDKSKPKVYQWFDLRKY

SMILES	IC50 [1] [nM]	IC50 [2] [nM]	IC50 ([1]; pH 7.4) [nM]
O=C1C=C(COC(=O)CCCCCCCCCCC(=O)OCC2=CC(=O)OC2O)C(O)O1 (stereo not shown) [Compound 1, Di-[5-hydroxy-2(5H)-2-oxo-4-furyl]methyl dodecan-1,12-dioate]	70	> 100000	–
CC(C)(C)C(=O)OC1OC(=O)C=C1COC(=O)CCCCCCCCCCC(=O)OCC1=CC(=O)OC1OC(=O)C(C)(C)C (stereo not shown) [Compound 2, Di-[5tert-butanoyloxy-2(5H)-furano-4yl]methyl dodecan-1,12-dioate]	–	> 100000	> 1000
O=C(CCCCCCCCCCC(=O)NCC1=CC(=O)OC1O)NCC1=CC(=O)OC1O (stereo not shown) [Compound 3, N,N'-Bis(5-hydroxy-2(5H)-2-oxo-4-furyl)methyl-1,12-dodecanoic acid amide]	30	> 100000	–
O=C(CCCCCCCCCCC(=O)NCC1=CC(=O)OC1OC(=O)Nc1ccccc1)NCC1=CC(=O)OC1O (stereo not shown) [Compound 4, N-(5-Hydroxy-2(5H)2-oxo-4-furyl)methyl-N'-(5-phenylcarbamoyloxy-2(5H) 2-oxo-4-furyl)methyl-1,12-dodecanamide]	–	> 100000	> 1000
O=C(CCCCCCCCCCC(=O)NCC1=CC(=O)OC1OC(=O)Nc1ccccc1)NCC1=CC(=O)OC1OC(=O)Nc1ccccc1 (stereo not shown) [Compound 5, N,N'-bis(5-phenylcarbamoyloxy-2(5H)2-oxo-4-furyl)methyl-1.12-dodeca]	–	> 100000	> 1000
